From patent EP4603105A1, “PHARMACEUTICAL COMPOSITION CONTAINING CYCLIC COMPOUND HAVING SELECTIVE KRAS INHIBITORY EFFECT AGAINST HRAS AND NRAS” (CHUGAI SEIYAKU KABUSHIKI KAISHA, priority 2022, dated 2024)
pIC50, pKd: −log10 of the molar value. Where two headings read alike, the source gives them in different places.

Columns and labels:
[1] = test system: human lung cancer strain NCI-H441; test: NCI-H441 cell proliferation inhibitory activity (CellTiter-Glo, 4 days); assay type: cell-based; settings: read-out: NCl-H441 IC50
Method in brief: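 Signal came from […] measured per well once the reagent was added. Beforehand, cells were cultured at 37°C and 5% carbon dioxide on a compound series serially diluted in dimethyl sulfoxide.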

[2] = target: GDP-bound NRAS wild-type protein (Homo sapiens, UniProt P01111); test: Binding to NRAS by surface plasmon resonance (SPR), KD and KD ratio to KRAS
Method in brief: (§1)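 Each cycle, GDP-bound biotin-Avi RAS was captured (~100–300 RU), compound concentrations were injected low to high for 75 s each at 100 µL/min, then the chip was regenerated. Buffer: HBS pH 7.4, 10 mM MgCl2, 10 µM GDP, 1 mM DTT, 4% DMSO; 30°C. KD from a 1:1 binding model.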

[3] = target: HRAS wild-type protein (Homo sapiens, UniProt P01112); test: Binding to HRAS by surface plasmon resonance (SPR), KD and KD ratio to KRAS
Method in brief: as §1

[4] = target: GDP-bound KRAS wild-type protein (Homo sapiens, UniProt P01116); test: Binding to KRAS by surface plasmon resonance (SPR), dissociation constant KD
Method in brief: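 Running buffer contained 10 µM GDP and 10 mM MgCl2 to keep RAS in the GDP state, with 4% DMSO at pH 7.4. Compounds were flowed at 100 µL/min in 75 s steps of rising concentration over captured biotin-Avi RAS at 30°C. Sensorgrams were fitted 1:1 for KD.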

[5] = ratio of KD for GDP-bound NRAS wild-type protein to KD for KRAS
[6] = ratio of KD for HRAS wild-type protein to KD for KRAS
[7] = 50% proliferation inhibitory concentration, four days
[8] = ratio of KD with respect to GDP-bound NRAS wild-type protein to KD with respect to KRAS
[9] = ratio of KD with respect to HRAS wild-type protein to KD with respect to KRAS
[10] = Single Cycle Kinetics, 1:1 binding model

GDP-bound KRAS wild-type protein, sequence (P01116 1-188 isoform P01116-2): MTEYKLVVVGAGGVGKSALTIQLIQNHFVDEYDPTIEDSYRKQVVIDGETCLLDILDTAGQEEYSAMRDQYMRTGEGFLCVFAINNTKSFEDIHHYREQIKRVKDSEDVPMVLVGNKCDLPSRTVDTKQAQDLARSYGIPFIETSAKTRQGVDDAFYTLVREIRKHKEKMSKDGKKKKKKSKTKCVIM
GDP-bound NRAS wild-type protein, sequence (P01111 whole entry): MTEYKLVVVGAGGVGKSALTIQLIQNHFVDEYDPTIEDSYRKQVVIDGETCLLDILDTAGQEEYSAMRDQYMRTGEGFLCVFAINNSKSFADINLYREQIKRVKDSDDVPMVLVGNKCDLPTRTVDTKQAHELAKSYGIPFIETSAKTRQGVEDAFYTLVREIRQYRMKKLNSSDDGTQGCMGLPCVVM
HRAS wild-type protein, sequence (P01112 whole entry): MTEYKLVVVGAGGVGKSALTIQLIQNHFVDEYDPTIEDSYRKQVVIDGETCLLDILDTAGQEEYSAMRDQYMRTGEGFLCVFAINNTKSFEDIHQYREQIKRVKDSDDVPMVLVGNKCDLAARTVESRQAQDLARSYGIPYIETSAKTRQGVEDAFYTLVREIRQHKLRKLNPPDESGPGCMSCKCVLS

## CCO[C@@H]1C[C@H]2C(=O)NC3(CCCC3)C(=O)N(C)[C@@H](C3CCCC3)C(=O)N(C)[C@H](C(=O)N(C)C)CC(=O)N(C)[C@@H]([C@@H](C)OC)C(=O)N[C@@H]([C@@H](C)CC)C(=O)N3CCC[C@H]3C(=O)N(C)[C@H]3C/C=C\CCN(C3=O)[C@@H](Cc3ccc(C)cc3)C(=O)N(C)CC(=O)N[C@@H](CCc3cc(F)c(C(F)(F)F)c(F)c3)C(=O)N2C1 [PP3483]
[1]; NCI-H441 cells, 4 days
  pIC50: 7.25
[2]; [5]
  NRAS /KRAS: A (a compound having 10 or more and less than 20 is denoted as A)
[3]; [6]
  HRAS /KRAS: A (a compound having 10 or more and less than 20 is denoted as A)
[4]; Single Cycle Kinetics
  pKd: 9.06

## C=CC[C@H]1C(=O)N(C)[C@H](C(=O)N(C)C)CC(=O)N(C)[C@@H](CCC)C(=O)N[C@@H]([C@@H](C)CC)C(=O)N2CCC[C@H]2C(=O)N(C)[C@H]2C/C=C\CCN(C2=O)[C@@H](Cc2ccc(C(F)(F)F)cc2)C(=O)N(C)CC(=O)N[C@@H](CCc2cc(F)c(C(F)(F)F)c(F)c2)C(=O)N2C[C@H](OCC)C[C@H]2C(=O)N(C)C2(CCC2)C(=O)N1C [PP3338]
[1]; NCI-H441 cells, 4 days
  pIC50: 6.98
[2]; [5]
  NRAS /KRAS: A (a compound having 10 or more and less than 20 is denoted as A)
[3]; [6]
  HRAS /KRAS: A (a compound having 10 or more and less than 20 is denoted as A)
[4]; Single Cycle Kinetics
  pKd: 8.34

## CCC[C@H]1C(=O)N[C@@H](C2CCCC2)C(=O)N(C)CC(=O)N(C)[C@H]2C/C=C\CCN(C2=O)[C@@H](Cc2ccc(C)cc2)C(=O)N(C)CC(=O)N[C@@H](CCc2cc(F)c(C(F)(F)F)c(F)c2)C(=O)N2CC3(CC3)C[C@H]2C(=O)N(C)C2(CCC2)C(=O)N(C)[C@@H](C(CC)CC)C(=O)N(C)[C@H](C(=O)N(C)C)CC(=O)N1C [PP3308]
[1]; NCI-H441 cells, 4 days
  pIC50: 7.76
[2]; [5]
  NRAS /KRAS: A (a compound having 10 or more and less than 20 is denoted as A)
[3]; [6]
  HRAS /KRAS: B (a compound having 3 or more and less than 10 is denoted as B)
[4]; Single Cycle Kinetics
  pKd: 9.74

## CCC(CC)[C@H]1C(=O)N(C)[C@H](C(=O)N(C)C)CC(=O)N(C)[C@@H](COC)C(=O)N[C@@H]([C@@H](C)CC)C(=O)N(C2CC2)CC(=O)N(C)[C@H]2C/C=C\CCN(C2=O)[C@@H](CC2CCC(F)(F)CC2)C(=O)N(C)CC(=O)N[C@@H](CCc2cc(F)c(C(F)(F)F)c(F)c2)C(=O)N2C[C@H](OC3CCCC3)C[C@H]2C(=O)NC2(CC(C)(C)C2)C(=O)N1C [PP2627]
[1]; NCI-H441 cells, 4 days
  pIC50: 7.02
[2]; [5]
  NRAS /KRAS: A (a compound having 10 or more and less than 20 is denoted as A)
[3]; [6]
  HRAS /KRAS: A (a compound having 10 or more and less than 20 is denoted as A)
[4]; 1:1 binding model
  pKd: 8.59

## CCOC[C@H]1C(=O)N[C@@H]([C@@H](C)CC)C(=O)N(C)CC(=O)N(C)[C@H]2C/C=C\CCN(C2=O)[C@@H](Cc2ccc(C)cc2)C(=O)N(C)CC(=O)N[C@@H](CCc2cc(F)c(C(F)(F)F)c(F)c2)C(=O)N2C[C@@H](C)C[C@H]2C(=O)NC2(CC(C)(C)C2)C(=O)N(C)[C@@H](C2CCCC2)C(=O)N(C)[C@H](C(=O)N(CC)CC)CC(=O)N1C [PP2407]
[1]; NCI-H441 cells, 4 days
  pIC50: 7.22
[2]; [5]
  NRAS /KRAS: A (a compound having 10 or more and less than 20 is denoted as A)
[3]; [6]
  HRAS /KRAS: A (a compound having 10 or more and less than 20 is denoted as A)
[4]; 1:1 binding model
  pKd: 9.30

## CCO[C@@H]1C[C@H]2C(=O)NC3(CCC3)C(=O)N(C)[C@@H](C3CCCC3)C(=O)N(C)[C@H](C(=O)N(C)C)CC(=O)N(C)[C@@H](CC3CCCC3)C(=O)N[C@@H]([C@@H](C)CC)C(=O)N(C)CC(=O)N(C)[C@H]3C/C=C\CCN(C3=O)[C@@H](Cc3ccc(F)cc3)C(=O)N(C)CC(=O)N[C@@H](CCc3ccc4sccc4c3)C(=O)N2C1 [PP1390]
[1]; [7]
  pIC50: 6.52
[2]; [8]
  NRAS /KRAS: A (a compound having 10 or more and less than 20 is denoted as A)
[3]; [9]
  HRAS /KRAS: A (a compound having 10 or more and less than 20 is denoted as A)
[4]; [10]
  pKd: 8.96

## CC[C@H](C)[C@@H]1NC(=O)[C@H](COC)N(C)C(=O)C[C@@H](C(=O)N(C)CC)N(C)C(=O)[C@H](C2CCCC2)N(C)C(=O)C2(CC(C)(C)C2)NC(=O)[C@@H]2C[C@H](C)CN2C(=O)[C@H](CCc2ccc(C(F)(F)F)c(Cl)c2)NC(=O)CN(C)C(=O)[C@H](Cc2ccc(C)cc2)N2CC/C=C\C[C@@H](C2=O)N(C)C(=O)CN(C)C1=O [PP2506]
[1]; NCI-H441 cells, 4 days
  pIC50: 7.97
[2]; [5]
  NRAS /KRAS: A (a compound having 10 or more and less than 20 is denoted as A)
[3]; [6]
  HRAS /KRAS: A (a compound having 10 or more and less than 20 is denoted as A)
[4]; 1:1 binding model
  pKd: 9.89

## CCO[C@@H]1C[C@H]2C(=O)NC3(CCC3)C(=O)N(C)[C@@H](C3CCCC3)C(=O)N(C)[C@H](C(=O)N3CCOCC3)CC(=O)N(C)[C@@H](CC(F)F)C(=O)N[C@@H]([C@@H](C)CC)C(=O)N(C)CC(=O)N(C)[C@H]3CCCCCN(C3=O)[C@@H](Cc3ccc(F)cc3)C(=O)N(C)CC(=O)N[C@@H](CCc3cc(F)c(C(F)(F)F)c(F)c3)C(=O)N2C1 [PP1177]
[1]; [7]
  pIC50: 7.49
[2]; [8]
  NRAS /KRAS: B (a compound having 3 or more and less than 10 is denoted as B)
[3]; [9]
  HRAS /KRAS: B (a compound having 3 or more and less than 10 is denoted as B)
[4]; [10]
  pKd: 10.09

## CCC[C@H]1C(=O)N[C@@H]([C@@H](C)CC)C(=O)N2CCC[C@H]2C(=O)N(C)[C@H]2C/C=C\CCN(C2=O)[C@@H](Cc2ccc(C)cc2)C(=O)N(C)CC(=O)N[C@@H](CCc2ccc(Cl)c(Cl)c2)C(=O)N2C[C@H](OC(C)C)C[C@H]2C(=O)NC2(CC(C)(C)C2)C(=O)N(C)[C@@H](C(CC)CC)C(=O)N(C)[C@H](C(=O)N(C)C)CC(=O)N1C [PP2641]
[1]; NCI-H441 cells, 4 days
  pIC50: 7.01
[2]; [5]
  NRAS /KRAS: AA (a compound having 20 or more is denoted as AA)
[3]; [6]
  HRAS /KRAS: A (a compound having 10 or more and less than 20 is denoted as A)
[4]; 1:1 binding model
  pKd: 8.70

## CCCC[C@H]1C(=O)N[C@@H]([C@@H](C)CC)C(=O)N(C)CC(=O)N(C)[C@H]2C/C=C\CCN(C2=O)[C@@H](Cc2ccc(C(F)(F)F)cc2)C(=O)N(C)CC(=O)N[C@@H](CCc2ccc(C(F)(F)F)c(OC)c2)C(=O)N2C[C@H](OCC)C[C@H]2C(=O)OC2(CCC2)C(=O)N(C)[C@@H](C2CCCC2)C(=O)N(C)[C@H](C(=O)N(C)C)CC(=O)N1C [PP3367]
[1]; NCI-H441 cells, 4 days
  pIC50: 8.07
[2]; [5]
  NRAS /KRAS: A (a compound having 10 or more and less than 20 is denoted as A)
[3]; [6]
  HRAS /KRAS: A (a compound having 10 or more and less than 20 is denoted as A)
[4]; Single Cycle Kinetics
  pKd: 9.74

## CCO[C@@H]1C[C@H]2C(=O)NC3(CCCC3)C(=O)N(C)[C@@H](C3CCCC3)C(=O)N(C)[C@H](C(=O)N(C)C)CC(=O)N(C)[C@@H](CC)C(=O)N[C@@H]([C@@H](C)CC)C(=O)N(C)CC(=O)N(C)[C@H]3C[C@@H](C)[C@@H](C)CN(C3=O)[C@@H](Cc3ccc(C(F)(F)F)cc3)C(=O)N(C)CC(=O)N[C@@H](CCc3ccc(C(F)(F)F)c(Cl)c3)C(=O)N2C1 [PP1358]
[1]; [7]
  pIC50: 8.39
[2]; [8]
  NRAS /KRAS: A (a compound having 10 or more and less than 20 is denoted as A)
[3]; [9]
  HRAS /KRAS: B (a compound having 3 or more and less than 10 is denoted as B)
[4]; [10]
  pKd: 10.52

## CCC[C@H]1C(=O)N[C@@H]([C@@H](C)CC)C(=O)N(C)CC(=O)N(C)[C@H]2C/C=C\CCN(C2=O)[C@@H](Cc2ccc(C)cc2)C(=O)N(C)CC(=O)N[C@@H](CCc2ccc(Cl)c(Cl)c2)C(=O)N2C[C@H](OCC)C[C@H]2C(=O)NC2(CC(C)(C)C2)C(=O)N(C)[C@@H](CC2CCC2)C(=O)N(C)[C@H](C(=O)N(C)C)CC(=O)N1C [PP2755]
[1]; NCI-H441 cells, 4 days
  pIC50: 7.45
[2]; [5]
  NRAS /KRAS: A (a compound having 10 or more and less than 20 is denoted as A)
[3]; [6]
  HRAS /KRAS: A (a compound having 10 or more and less than 20 is denoted as A)
[4]; 1:1 binding model
  pKd: 9.25

## CCO[C@@H]1C[C@H]2C(=O)NC3(CCC3)C(=O)N(C)[C@@H](C(CC)CC)C(=O)N(C)[C@H](C(=O)N(C)C)CC(=O)N(C)[C@@H](C)C(=O)N[C@@H]([C@@H](C)CC)C(=O)N(C)CC(=O)N(C)[C@H]3C/C=C\CCN(C3=O)[C@@H](Cc3ccc(C(F)(F)F)cc3)C(=O)N(C)CC(=O)N[C@@H](CCc3cc(F)c(C(F)(F)F)c(F)c3)C(=O)N2C1 [PP1199]
[1]; [7]
  pIC50: 7.41
[2]; [8]
  NRAS /KRAS: A (a compound having 10 or more and less than 20 is denoted as A)
[3]; [9]
  HRAS /KRAS: A (a compound having 10 or more and less than 20 is denoted as A)
[4]; [10]
  pKd: 9.77

## CCC[C@H]1C(=O)N[C@@H](CC(C)C)C(=O)N(CCOC)CC(=O)N(C)[C@H]2C/C=C\CCN(C2=O)[C@@H](Cc2ccc(C)cc2)C(=O)N(C)CC(=O)N[C@@H](CCc2ccc(C(F)(F)F)c(Cl)c2)C(=O)N2C[C@H](OCC)C[C@H]2C(=O)NC2(CCC2)C(=O)N(C)[C@@H](C2CCCC2)C(=O)N(C)[C@H](C(=O)N(C)C)CC(=O)N1C [PP2546]
[1]; NCI-H441 cells, 4 days
  pIC50: 6.53
[2]; [5]
  NRAS /KRAS: B (a compound having 3 or more and less than 10 is denoted as B)
[3]; [6]
  HRAS /KRAS: B (a compound having 3 or more and less than 10 is denoted as B)
[4]; 1:1 binding model
  pKd: 8.33
